# Laboratory results from patent US8450400B2, “Polypropylene resin composition and molded article made thereof” (Sumitomo Chemical Company, Limited, priority 2007, dated 2013).
# Experiment: Weight loss rate by thermogravimetric analysis (TG-DTA) to 300° C. under nitrogen
# Assay type: physicochemical
# Conditions: room temperature to 300° C. at 10° C./min, nitrogen gas atmosphere (100 ml/min)
# Procedure: Regarding requirement (c), from the viewpoint of the staining of a mold, the emitted amount of VOC, and the weather resistance, the weight loss rate measured in a thermogravimetric analysis at a temperature of 300° C. under a nitrogen gas atmosphere preferably is less than 5% by weight, and more preferably is less than 3% by weight. The weight loss rate measured by the thermogravimetric analysis of a hindered amine light stabilizer (D) to be used for the present invention is a value determined by using a thermo gravimetry differential thermal analyzer (TG-DTA). Described concretely, it is a weight loss rate determined using a thermobalance when the temperature of a hindered amine light stabilizer (D) is increased from room temperature to 300° C. at a rate of 10° C. per minute under a nitrogen gas atmosphere (in a nitrogen flow at a flow rate of 100 ml/min).
# From the viewpoint of inhibiting mold staining, the weight loss rate of the nonionic antistatic agent (E) to be used for the present invention measured by thermogravimetric analysis executed at a temperature of 300° C. under a nitrogen atmosphere preferably is less than 20% by weight, and more preferably 5 to 15% by weight. The weight loss rate is determined by the use of a thermo gravimetry differential thermal analyzer (TG-DTA). Described concretely, it is a weight loss rate determined using a thermobalance when the temperature of the nonionic antistatic agent (E) is increased from room temperature to 300° C. at a rate of 10° C. per minute under a nitrogen gas atmosphere (in a nitrogen flow at a flow rate of 100 ml/min).
# The weight loss by thermogravimetric analysis (TG-DTA) of a light stabilizer was measured with a thermo gravimetry differential thermal analyzer from room temperature to 300° C. at a temperature increasing rate of 10° C./min under a nitrogen gas atmosphere (gas flow rate: 100 ml/min). […]
row,Compound,Weight loss rate by TG-DTA [% by weight]
1,"CC1(C)CC(OC(=O)CCCCCCCCC(=O)OC2CC(C)(C)NC(C)(C)C2)CC(C)(C)N1 [Example D-2, Bis(2,2,6,6-tetramethyl-4-piperidyl) sebacate]",19.6
2,Stearic acid monoglyceride [Example E-1],23.8
3,"CC(C)(C)c1ccc(OC(=O)c2cc(C(C)(C)C)c(O)c(C(C)(C)C)c2)c(C(C)(C)C)c1 [Example D-3, 2,4-di-tert-butylphenyl 3,5-di-tert-butyl-4-hydroxybenzoate]",31.6
